Tests used:
rat Osteocalcin in serum = assay: Rat Osteocalcin EIA in serum, orchidectomy model (Example 3); type: in vivo; conditions: castrated rats
Experimental: Male Sprague-Dawley rats (Harlan Sprague Dawley) were placed on study at 14-weeks of age. They were randomized and divided into five treatment groups: vehicle only (placebo, or P) after sham operation, vehicle only after orchidectomy (Orx), Toremifene (5 mg/kg/day) after sham-operation, and Toremifene after orchidectomy, and 17-β-estradiol (0.5 mg/kg/day) after orchidectomy. Test articles were delivered subcutaneously by Alzet pumps. Pumps were re-implanted every 30 days until the end of the study. Five to six animals from each group were sacrificed after 60 and 120 days of treatment, and femurs were harvested, stripped of soft tissue and muscle, and stored individually in polypropylene vials at −80° C. until analysis of bone density and mechanical strength testing. Additionally, serum was collected on days 15, 30, 60, 90 and 120, to measure markers of bone metabolism and to perform serum chemistry.
After collection, serum was divided into 3 aliquots and stored at −80° C. until analysis. 125 ul for serum biochemistry performed by AniLytics, Gaithersburg, Md. (Bone-Specific Alkaline Phosphatase, Calcium, Phosphorus, Creatinine and Bilirubin). 100 ul for serum Rat Osteocalcin ELISA and Serum RatLaps ELISA for C-terminal telopeptides determination. The rest of the collected serum was left for repeated test if necessary.
Rat Osteocalcin EIA, Biomedical Technologies, MA
This assay is specific for rat Osteocalcin and both carboxylated and decarboxylated rat Osteocalcin are recognized. A monoclonal antibody against the N-terminal region of Osteocalcin is bound to the polystyrene wells. The assay was performed in duplicates. 100 ul of standards, control and 1 to 20 diluted samples were added to appropriate wells and incubated overnight at 4 C. After washing the strips, 100 ul of Goat polyclonal antibody of high specificity for C-terminus of rat Osteocalcin was added and incubated 60 min at 37 C. […] The reaction was stopped, and the absorbance was measured at 450 nm. […] Sample osteocalcin concentrations were determined by interpolation.

Osteocalcin in rat serum = assay: Osteocalcin (OC) in rat serum (Example 4); type: in vivo; conditions: Orx rats; for OC (osteocalcin) levels in serum: 10 days; for inhibitory effect on OC levels: 28 days
Experimental: This assay is specific for rat Osteocalcin and both carboxylated and decarboxylated rat Osteocalcin are recognized. A monoclonal antibody against the N-terminal region of Osteocalcin is bound to the polystyrene wells. The assay was performed in duplicates. 100 ul of standards, control and 1 to 20 diluted samples were added to appropriate wells and incubated overnight at 4 C. After washing the strips, 100 ul of Goat polyclonal antibody of high specificity for C-terminus of rat Osteocalcin was added and incubated 60 min at 37 C. After washing, 100 ul of Donkey anti-goat IgG peroxidase conjugated antibody was added and incubated 60 min at 22 C. The wells were washed and a mix of TMB and peroxide solution was added and incubated 30 min at 22 C in the dark. The reaction was stopped, and the absorbance was measured at 450 nm. A standard curve was constructed using 4-parametric logistic curve fit. Sample osteocalcin concentrations were determined by interpolation. Eight month-old male Sprague Dawley rats were either sham-operated (SHAM) or orchidectomized (ORX). Treatment began immediately following surgery. The treatment groups were as described in Table 5.

[1] = test system: orchidectomized rats (ORX); assay: Ex vivo DXA of the femur (BMC, BA, BMD) (Example 4); type: in vivo, rat; conditions: for Distal femur Bone Area / Distal femur Bone Mineral Content / Distal femur Bone Mineral Density / Midshaft femur Bone Area / Midshaft femur Bone Mineral Content / Midshaft femur Bone Mineral Density / Proximal femur Bone Area / Proximal femur Bone Mineral Content / Proximal femur Bone Mineral Density / Whole femur Bone Area / Whole femur Bone Mineral Content / Whole femur Bone Mineral Density: ORX rats, 6 wks, mean; for bone mass of the whole femur (DXA): 6 weeks of treatment; for loss in bone mineral density at the proximal femur (DXA): 10 mg/kg/d Tor, E 0.2 mg/kg/d; for bone density at the distal femur (DXA): 10 mg/kg/d toremifene, E 0.2 mg/kg/d (p<0.05 vs. Orx+Vehicle for E)
Experimental: Eight month-old male Sprague Dawley rats were either sham-operated (SHAM) or orchidectomized (ORX). Treatment began immediately following surgery. The treatment groups were as described in Table 5.
Ex vivo DXA analysis was performed on the vertebra (L5) using a PIXImus instrument and associated animal research software (Lunar Corporation, Madison, Wis.). Bone mineral content (BMC), bone area (BA) and bone mineral density (BMD) are reported. Ex vivo DXA analysis was performed on the femur using a pDXA Sabre and associated animal research software (Norland Medical Systems, Inc., Fort Atkinson, Wis.). BMC, BA and BMD are reported for four regions of interest: whole femur, 25% distal femur, 25% proximal femur and 50% of midshaft femur.

[2] = test system: orchidectomized rats (ORX); assay: Compression test of the distal femur (Example 4); type: in vivo, rat; conditions: for Elastic Modulus / Energy / Maximum Load / Stiffness / Toughness / Ultimate Strength: distal femur
Experimental: (§1) Eight month-old male Sprague Dawley rats were either sham-operated (SHAM) or orchidectomized (ORX). Treatment began immediately following surgery. The treatment groups were as described in Table 5. Bone strength was evaluated using a compression test at the vertebral body, a three point bending test at the femoral shaft, a compression test at the distal femur and a cantilever compression test of the femoral neck. Prior to mechanical testing, all samples were thawed in cold saline and carefully cleaned of any remaining adherent soft tissue.

[3] = test system: orchidectomized rats (ORX); assay: Cantilever compression test of the femoral neck (Example 4); type: in vivo, rat; conditions: 12 weeks, mean
Experimental: as §1

[4] = up to 120 days, Toremifene 5 mg/kg/day, 17-β-estradiol 0.5 mg/kg/day s.c., FIG. 2B
[5] = Toremifene 5 mg/kg/d, Estradiol 0.2 mg/kg/d
[6] = Week 12, 5 mg/kg/d of Toremifene, Estradiol 0.2 mg/kg/d
[7] = week 6, mean, Toremifene 5 mg/kg/d, Estradiol 0.2 mg/kg/d
[8] = week 12, mean, Toremifene 5 mg/kg/d, Estradiol 0.2 mg/kg/d
[9] = week 6, mean, Toremifene 10 mg/kg/d
[10] = week 12, mean, Toremifene 10 mg/kg/d

SMILES: C[C@]12CC[C@@H]3c4ccc(O)cc4CC[C@H]3[C@@H]1CC[C@@H]2O [17-β-Estradiol]
- serum osteocalcin levels (rat Osteocalcin in serum; [4]): significantly reduce osteocalcin levels to below that of intact control rats
- OC (osteocalcin) levels in serum (Osteocalcin in rat serum; E 0.2 mg/kg/d, 5 mg-Tor): reversed OC levels to slightly below that of Sham group
- Distal femur Bone Area [1, 5]: 0.674 cm^2
- Distal femur Bone Mineral Content [1, 5]: 0.162 gm
- Distal femur Bone Mineral Density [1, 5]: 0.240 gm/cm^2
- Midshaft femur Bone Area [1, 5]: 1.128 cm^2
- Midshaft femur Bone Mineral Content [1, 5]: 0.281 gm
- Midshaft femur Bone Mineral Density [1, 5]: 0.250 gm/cm^2
- Proximal femur Bone Area [1, 5]: 0.685 cm^2
- Proximal femur Bone Mineral Content [1, 5]: 0.167 gm
- Proximal femur Bone Mineral Density [1, 5]: 0.245 gm/cm^2
- Whole femur Bone Area [1, 5]: 2.480 cm^2
- Whole femur Bone Mineral Content [1, 5]: 0.609 gm
- Whole femur Bone Mineral Density [1, 5]: 0.246 gm/cm^2
- bone mineral density at the midshaft femur (DXA) ([1]; Orx rats, 6 weeks): did not show any effect
- bone mass of the whole femur (DXA) ([1]; Orx rats): did not exhibit any significant effect
- loss in bone mineral density at the proximal femur (DXA) ([1]; Orx rats, 6 weeks): somewhat helpful in preventing this loss
- bone density at the distal femur (DXA) ([1]; Orx rats, 6 weeks): significantly improved overall density
- bone strength, compression test of the distal femur ([2]; Week 6): highest values in all groups
- bone strength, compression test of the distal femur [2, 6]: highest values at Week 12
- Elastic Modulus [2, 7]: 579.48 MPa
- Energy [2, 7]: 66.00 mJ
- Maximum Load [2, 7]: 561.45 N
- Stiffness [2, 7]: 4758.55 N/mm
- Toughness [2, 7]: 0.91 MJ/m^3
- Ultimate Strength [2, 7]: 22.89 N/mm^2
- Elastic Modulus [2, 8]: 473.02 MPa
- Energy [2, 8]: 55.94 mJ
- Maximum Load [2, 8]: 487.94 N
- Stiffness [2, 8]: 3714.71 N/mm
- Toughness [2, 8]: 0.78 MJ/m^3
- Ultimate Strength [2, 8]: 20.66 N/mm^2
- Energy ([3]; 0.2 mg/kg/d): 40.07 mJ
- Maximum Load ([3]; 0.2 mg/kg/d): 114.96 N
- Stiffness ([3]; 0.2 mg/kg/d): 209.95 N/mm

SMILES: CN(C)CCOc1ccc(/C(=C(/CCCl)c2ccccc2)c2ccccc2)cc1 [Toremifene]
- serum osteocalcin levels (rat Osteocalcin in serum; 15 days (p<0.05) and 30 days (p<0.02), Toremifene 5 mg/kg/day s.c., FIG. 2A): significantly reduced the osteocalcin levels in castrated animals to intact control levels
- serum osteocalcin levels (rat Osteocalcin in serum; [4]): significantly reduce osteocalcin levels to below that of intact control rats
- OC (osteocalcin) levels in serum (Osteocalcin in rat serum; 10 mg-Tor): reversed OC levels to slightly below that of Sham group
- OC (osteocalcin) levels in serum (Osteocalcin in rat serum; E 0.2 mg/kg/d, 5 mg-Tor): reversed OC levels to slightly below that of Sham group
- inhibitory effect on OC levels (Osteocalcin in rat serum; continued at 42 days, 10 mg-Tor): more pronounced than both 5 mg Tor and E
- inhibitory effect on OC levels (Osteocalcin in rat serum; 5 mg-Tor): same as E
- Distal femur Bone Area [1, 5]: 0.649 cm^2
- Distal femur Bone Mineral Content [1, 5]: 0.145 gm
- Distal femur Bone Mineral Density [1, 5]: 0.224 gm/cm^2
- Midshaft femur Bone Area [1, 5]: 1.086 cm^2
- Midshaft femur Bone Mineral Content [1, 5]: 0.271 gm
- Midshaft femur Bone Mineral Density [1, 5]: 0.249 gm/cm^2
- Proximal femur Bone Area [1, 5]: 0.658 cm^2
- Proximal femur Bone Mineral Content [1, 5]: 0.154 gm
- Proximal femur Bone Mineral Density [1, 5]: 0.234 gm/cm^2
- Whole femur Bone Area [1, 5]: 2.389 cm^2
- Whole femur Bone Mineral Content [1, 5]: 0.570 gm
- Whole femur Bone Mineral Density [1, 5]: 0.238 gm/cm^2
- Distal femur Bone Area ([1]; Toremifene 10 mg/kg/d): 0.659 cm^2
- Distal femur Bone Mineral Content ([1]; Toremifene 10 mg/kg/d): 0.152 gm
- Distal femur Bone Mineral Density ([1]; Toremifene 10 mg/kg/d): 0.230 gm/cm^2
- Midshaft femur Bone Area ([1]; Toremifene 10 mg/kg/d): 1.094 cm^2
- Midshaft femur Bone Mineral Content ([1]; Toremifene 10 mg/kg/d): 0.286 gm
- Midshaft femur Bone Mineral Density ([1]; Toremifene 10 mg/kg/d): 0.261 gm/cm^2
- Proximal femur Bone Area ([1]; Toremifene 10 mg/kg/d): 0.672 cm^2
- Proximal femur Bone Mineral Content ([1]; Toremifene 10 mg/kg/d): 0.164 gm
- Proximal femur Bone Mineral Density ([1]; Toremifene 10 mg/kg/d): 0.244 gm/cm^2
- Whole femur Bone Area ([1]; Toremifene 10 mg/kg/d): 2.420 cm^2
- Whole femur Bone Mineral Content ([1]; Toremifene 10 mg/kg/d): 0.601 gm
- Whole femur Bone Mineral Density ([1]; Toremifene 10 mg/kg/d): 0.248 gm/cm^2
- bone mineral density at the midshaft femur (DXA) ([1]; Orx rats, 6 weeks): did not show any effect
- bone mass of the whole femur (DXA) ([1]; Orx rats): did not exhibit any significant effect
- loss in bone mineral density at the proximal femur, as in distal femur (DXA) ([1]; Orx rats, 6 weeks, 5 mg/kg/d Tor): ineffective
- loss in bone mineral density at the proximal femur (DXA) ([1]; Orx rats, 6 weeks): somewhat helpful in preventing this loss
- bone density at the distal femur (DXA) ([1]; Orx rats, 6 weeks): prevented Orx-related loss of bone density
- bone strength, compression test of the distal femur ([2]; Week 6): bone strength similar to that of Sham-operated animals
- bone strength, compression test of the distal femur [2, 6]: maintained similar strength
- bone strength, compression test of the distal femur ([2]; Week 12, 10 mg/kg/d Toremifene): small decrease in strength
- Elastic Modulus [2, 7]: 535.08 MPa
- Energy [2, 7]: 56.00 mJ
- Maximum Load [2, 7]: 469.64 N
- Stiffness [2, 7]: 4058.07 N/mm
- Toughness [2, 7]: 0.81 MJ/m^3
- Ultimate Strength [2, 7]: 20.54 N/mm^2
- Elastic Modulus [2, 9]: 440.77 MPa
- Energy [2, 9]: 66.19 mJ
- Maximum Load [2, 9]: 447.29 N
- Stiffness [2, 9]: 3549.70 N/mm
- Toughness [2, 9]: 0.91 MJ/m^3
- Ultimate Strength [2, 9]: 18.47 N/mm^2
- Elastic Modulus [2, 8]: 379.32 MPa
- Energy [2, 8]: 53.13 mJ
- Maximum Load [2, 8]: 458.79 N
- Stiffness [2, 8]: 3175.07 N/mm
- Toughness [2, 8]: 0.69 MJ/m^3
- Ultimate Strength [2, 8]: 18.09 N/mm^2
- Elastic Modulus [2, 10]: 418.05 MPa
- Energy [2, 10]: 45.57 mJ
- Maximum Load [2, 10]: 411.45 N
- Stiffness [2, 10]: 3366.63 N/mm
- Toughness [2, 10]: 0.62 MJ/m^3
- Ultimate Strength [2, 10]: 16.81 N/mm^2
- Energy ([3]; 5 mg/kg/d): 46.53 mJ
- Maximum Load ([3]; 5 mg/kg/d): 116.46 N
- Stiffness ([3]; 5 mg/kg/d): 211.77 N/mm
- Energy ([3]; 10 mg/kg/d): 44.59 mJ
- Maximum Load ([3]; 10 mg/kg/d): 117.50 N
- Stiffness ([3]; 10 mg/kg/d): 211.73 N/mm

— patent publication US7524866B2, “Prevention and treatment of androgen—deprivation induced osteoporosis” (GTx, Inc., priority 2001, dated 2009)
